The values below come from publication PMC5841289, “Natural polyphenols as sirtuin 6 modulators” (Scientific Reports, 2018).

Data set [1] relates to Twist1 protein expression in Caco-2 cells. In words: Immunoblotting of Twist1 protein expression in Caco-2 cells. It is filed as cell-based, human. To be noted: Caco-2, 24 h, 100 µM. The method, then: (§1) After the treatment, conditions of the cells were evaluated under a light microscope (Fig. 3A). […] Full-length blots are presented in Supplementary Fig. S4.
(§2) FoxO3α, Twist1 and GLUT1 expression were quantified and normalised with α-tubulin or H3. Data represent the mean ± SEM of three independent experiments,*p < 0.05, **p < 0.01 and ***p < 0.001 between the indicated groups.
(§3) Caco-2 cells (passage 30–40) were cultured in DMEM with 10% FBS, 1% nonessential amino acids, 2 mM L-glutamine, 100 units/ml of penicillin, and 100 µg/ml of streptomycin at +37 °C. Cells were cultured 14 days before the treatments. For the immunoblotting, cells were seeded on 24-well plates (1 × 10^5 cells/well).
(§4) After treatment, medium was discarded and cells were washed twice with ice-cold PBS. RIPA buffer was added to the cells and incubated for 30 min. Cell suspensions were collected and centrifuged (13,000 rpm, 20 min +4 °C). Supernatant containing the proteins were aliquoted and stored at −80 °C. Sample protein concentrations were measured with Bradford Assay (Bio-Rad DC^TM Protein Assay).
(§5) Immunoblotting was performed according to standard protocols from four independent experiments. […] HRP-conjugated secondary antibodies (goat anti-rabbit, goat anti-mouse) were incubated for 1 hour at room temperature and proteins were detected using ELC prime western blotting system. […]

Data set [2] relates to SIRT6 protein expression in Caco-2 cells. In words: Immunoblotting of SIRT6 protein expression in Caco-2 cells. To be noted: 24 h; for SIRT6 expression, in words: Caco-2 cells. Type of data set: cell-based, human. The protocol:
as §1
(§6) (B) Immunoblotting analysis of SIRT6 protein. SIRT6 protein levels (MW: 39 kDa) were normalized relative to α-tubulin (MW: 50 kDa) and quantification is represented as fold change respect to control. Values are expressed as mean ± SEM of four independent experiment (*p values < 0.05; one way-ANOVA). SIRT6 expression were determined by immunoblotting (B).
as §3, §4
Immunoblotting was performed according to standard protocols from four independent experiments. Briefly, protein samples (18 µg/sample) were separated by SDS-PAGE using 10–20% gradient gels and transferred onto PVDF membranes. Membranes were blocked in 3% non-fat dry milk and further incubated with primary rabbit anti- FoxO3α (1:2000), anti-GLUT1 (1:1000), anti-H3, anti-SIRT6 (1:2000), anti-Twist (1:2000) anti-α-tubulin (1:8000) antibodies overnight at +4 °C. HRP-conjugated secondary antibodies (goat anti-rabbit, goat anti-mouse) were incubated for 1 hour at room temperature and proteins were detected using ELC prime western blotting system. Densitometric analysis of protein bands was carried out using ImageJ 1.32 software and the data were normalized by α-tubulin (loading control).

The target of the next data set is T1, GST-tagged SIRT6 (Homo sapiens, UniProt Q8N6T7).
T1 construct: made in house; host or cells: E. coli BL21(DE3)-pRARE
Briefly: HPLC-based SIRT6 deacetylation assay with H3K9Ac peptide.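 Further: recombinant SIRT6 incubated 30 min at 37 °C with 500 µM NAD+ and H3K9Ac peptide, deacetylated H3K9 quantified by reversed-phase HPLC-MRM peak area versus DMSO control.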 It is filed as biochemical.

For data set [3], the system named is GLUT1 protein expression in Caco-2 cells. In words: Immunoblotting of GLUT1 protein expression in Caco-2 cells. It is filed as cell-based, human. To be noted: Caco-2, 24 h, 100 µM. The method, then:
as §1, §2, §3, §4, §5

The subject of data set [4] is FoxO3α protein expression in Caco-2 cells. In words: Immunoblotting of FoxO3α protein expression in Caco-2 cells. To be noted: Caco-2, 24 h, 50 and 100 µM. Type of data set: cell-based, human. The protocol: as §1, §2, §3, §4, §5
The target of the next data set is T2, GST-SIRT6 (Homo sapiens, UniProt Q8N6T7).
T2 construct: made in house; host or cells: E. coli BL21(DE3)-pRARE
In words: In vitro SIRT6 deacetylation of core histones, western blot of H3K9Ac. It is filed as biochemical. To be noted: 100 µM. The protocol:
Western blot analysis was carried out as previously described, with slight modifications. […] The reaction was stopped with Laemmli (sample buffer) and separated by SDS-PAGE using 10–20% gradient gels and transferred onto polyvinylidene difluoride (PVDF) membranes. H3K9 acetylation was detected with rabbit anti-acetyl H3K9 antibody followed by anti-rabbit HRP-conjugated secondary antibody. Membranes were stripped and re-probed with rabbit anti-histone H3 antibody. Chemiluminescent signal detection and image acquisition were carried out using ECL prime western blotting detection reagents.
3 μg/well of a purified recombinant GST‐SIRT6 protein, 1.25 μg purified whole chicken core histones with 500 μM NAD+ in 25 mM Tris‐HCl, pH 8.0. Analysis were repeated three times and one representative cropped blot is shown (A). Uncropped blots probed with H3K9Ac (B), H3 (C). […]

In another data set the test system is Caco-2 cells. Briefly: Light microscopy of Caco-2 cells after treatment. It is filed as cell-based, human. To be noted: 200 µM. The method, then:
as §1, §6, §3

Each structure is given as a SMILES string.

T1 sequence (Q8N6T7 whole entry): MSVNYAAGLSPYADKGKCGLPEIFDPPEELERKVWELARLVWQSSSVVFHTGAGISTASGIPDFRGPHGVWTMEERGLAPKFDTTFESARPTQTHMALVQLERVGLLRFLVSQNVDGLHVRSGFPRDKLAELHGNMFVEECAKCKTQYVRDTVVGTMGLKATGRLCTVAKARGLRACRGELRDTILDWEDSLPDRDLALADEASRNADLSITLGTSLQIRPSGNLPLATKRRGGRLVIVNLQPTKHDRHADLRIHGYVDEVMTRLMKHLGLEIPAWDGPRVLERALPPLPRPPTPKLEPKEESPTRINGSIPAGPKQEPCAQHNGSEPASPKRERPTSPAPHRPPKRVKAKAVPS
T2 sequence (Q8N6T7 whole entry): as above

Take `Oc1cc(O)c2cc(O)c(-c3ccc(O)c(O)c3)[o+]c2c1` [Compound 17, Cyanidin]: the “Twist1 expression, in words” value in data set [1] was “downregulated”. This compound yielded an SIRT6 expression up-regulation in data set [2] (Caco-2, 50–100 µM, relative to control) of 3.5 fold. Further, the “SIRT6 expression, in words” value in data set [2] was “effective in a dose-dependent manner”; in data set [2] (listed as Cyanidin), “significantly increased SIRT6 expression”. Besides, the “SIRT6 activation, in words” value at GST-tagged SIRT6 is reported as “increase in deacetylase activity”. Besides, on GST-tagged SIRT6 (100 µM compound, 40 µM H3K9Ac, mean ± SD, n=3, fold per Fig. 2C legend), the “Activation 100 µM” value is given as 2.6 ± 0.1 fold. Further, the inhibition at 100 µM against GST-tagged SIRT6 (100 µM compound, mean ± SD, n=3) amounted to 0%. The “GLUT1 expression, in words” value in data set [3] is recorded as “downregulated”. Besides, the “FoxO3α protein expression, in words” value in data set [4] is given as “enhanced the protein expression of FOXO3 significantly”. For the same compound, the “Increase of deacetylation activity (H3K9Ac on core histones)” value at GST-SIRT6 is reported as ~2.5 fold. Also, the “Precipitation in cell culture medium” value in the data set with Caco-2 cells is on record as “precipitated out of solution”.
